Earlier results on 1 substance are cited in patent publication US6881426B2, “Echinacea angustifolia extracts” (priority 2002, dated 2005).

The data set has as its system hyaluronidase.

As for echinacoside, the hyaluronidase inhibition entry is “inhibition”.
